According to BindingDB's records for doi:10.1021/jm0001976 (Merck Research Laboratories, 2000):

What follows are compounds tested against Histone deacetylase (Eimeria tenella) (assay: Tested for Histone deacetylase enzyme inhibition assay using Eimeria tenella extract).

| SMILES | IC50 [nM] |
| --- | --- |
| CCC(=O)CCCCC[C@@H]1NC(=O)[C@H]2CCCCN2C(=O)[C@H]([C@@H](C)CC)NC(=O)[C@H](c2cn(OC)c3ccccc3c2=O)NC1=O | 3.8 |
| CCC(=O)CCCCC[C@@H]1NC(=O)[C@H]2CCCCN2C(=O)[C@H]([C@@H](C)CC)NC(=O)[C@H](c2cn(CC)c3ccccc3c2=O)NC1=O | 11 |
| CCC(=O)CCCCC[C@@H]1NC(=O)[C@H]2CCCCN2C(=O)[C@H]([C@@H](C)CC)NC(=O)[C@H](c2cn(C)c3ccccc3c2=O)NC1=O | 9 |
| CCCn1cc([C@@H]2NC(=O)[C@H](CCCCCC(=O)CC)NC(=O)[C@H]3CCCCN3C(=O)[C@H]([C@@H](C)CC)NC2=O)c(=O)c2ccccc21 | 28 |
